# What was measured:
# [1] = target: T1, Muscarinic acetylcholine receptor M1 (Homo sapiens, UniProt P11229); format: functional, cell-based
# T1 sequence (P11229 whole entry): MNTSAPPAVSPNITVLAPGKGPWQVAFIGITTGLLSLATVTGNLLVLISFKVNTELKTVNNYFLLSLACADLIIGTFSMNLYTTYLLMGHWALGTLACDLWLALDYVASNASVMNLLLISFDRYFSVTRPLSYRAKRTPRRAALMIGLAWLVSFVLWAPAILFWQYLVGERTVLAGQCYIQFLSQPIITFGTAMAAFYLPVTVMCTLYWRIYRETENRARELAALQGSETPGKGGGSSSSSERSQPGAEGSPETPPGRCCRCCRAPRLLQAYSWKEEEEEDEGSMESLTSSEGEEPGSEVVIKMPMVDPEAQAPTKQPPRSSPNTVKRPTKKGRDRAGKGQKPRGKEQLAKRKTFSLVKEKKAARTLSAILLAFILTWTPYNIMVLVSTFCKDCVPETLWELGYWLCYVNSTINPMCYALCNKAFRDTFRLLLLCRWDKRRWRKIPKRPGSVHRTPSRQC
# [2] = target: T2, Alpha-1A adrenergic receptor (Homo sapiens, UniProt P35348); format: functional, cell-based
# T2 sequence (P35348 whole entry): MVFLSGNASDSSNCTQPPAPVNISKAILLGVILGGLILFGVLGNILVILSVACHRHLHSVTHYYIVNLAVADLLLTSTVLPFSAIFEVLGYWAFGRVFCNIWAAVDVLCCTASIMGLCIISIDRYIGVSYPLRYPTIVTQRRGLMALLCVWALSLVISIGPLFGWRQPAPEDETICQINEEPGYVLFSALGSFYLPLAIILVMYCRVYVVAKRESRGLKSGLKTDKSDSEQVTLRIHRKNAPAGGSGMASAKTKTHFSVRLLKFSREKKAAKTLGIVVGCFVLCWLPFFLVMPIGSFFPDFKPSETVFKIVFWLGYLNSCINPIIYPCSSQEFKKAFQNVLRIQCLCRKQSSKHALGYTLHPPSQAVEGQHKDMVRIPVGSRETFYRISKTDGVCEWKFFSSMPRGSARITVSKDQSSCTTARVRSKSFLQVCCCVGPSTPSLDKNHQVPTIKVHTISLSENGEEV
# [3] = target: Vascular endothelial growth factor receptor 2 (Homo sapiens, UniProt P35968); format: functional
# Further: assay procedure not described here.
# Chain of Vascular endothelial growth factor receptor 2 (P35968 whole entry): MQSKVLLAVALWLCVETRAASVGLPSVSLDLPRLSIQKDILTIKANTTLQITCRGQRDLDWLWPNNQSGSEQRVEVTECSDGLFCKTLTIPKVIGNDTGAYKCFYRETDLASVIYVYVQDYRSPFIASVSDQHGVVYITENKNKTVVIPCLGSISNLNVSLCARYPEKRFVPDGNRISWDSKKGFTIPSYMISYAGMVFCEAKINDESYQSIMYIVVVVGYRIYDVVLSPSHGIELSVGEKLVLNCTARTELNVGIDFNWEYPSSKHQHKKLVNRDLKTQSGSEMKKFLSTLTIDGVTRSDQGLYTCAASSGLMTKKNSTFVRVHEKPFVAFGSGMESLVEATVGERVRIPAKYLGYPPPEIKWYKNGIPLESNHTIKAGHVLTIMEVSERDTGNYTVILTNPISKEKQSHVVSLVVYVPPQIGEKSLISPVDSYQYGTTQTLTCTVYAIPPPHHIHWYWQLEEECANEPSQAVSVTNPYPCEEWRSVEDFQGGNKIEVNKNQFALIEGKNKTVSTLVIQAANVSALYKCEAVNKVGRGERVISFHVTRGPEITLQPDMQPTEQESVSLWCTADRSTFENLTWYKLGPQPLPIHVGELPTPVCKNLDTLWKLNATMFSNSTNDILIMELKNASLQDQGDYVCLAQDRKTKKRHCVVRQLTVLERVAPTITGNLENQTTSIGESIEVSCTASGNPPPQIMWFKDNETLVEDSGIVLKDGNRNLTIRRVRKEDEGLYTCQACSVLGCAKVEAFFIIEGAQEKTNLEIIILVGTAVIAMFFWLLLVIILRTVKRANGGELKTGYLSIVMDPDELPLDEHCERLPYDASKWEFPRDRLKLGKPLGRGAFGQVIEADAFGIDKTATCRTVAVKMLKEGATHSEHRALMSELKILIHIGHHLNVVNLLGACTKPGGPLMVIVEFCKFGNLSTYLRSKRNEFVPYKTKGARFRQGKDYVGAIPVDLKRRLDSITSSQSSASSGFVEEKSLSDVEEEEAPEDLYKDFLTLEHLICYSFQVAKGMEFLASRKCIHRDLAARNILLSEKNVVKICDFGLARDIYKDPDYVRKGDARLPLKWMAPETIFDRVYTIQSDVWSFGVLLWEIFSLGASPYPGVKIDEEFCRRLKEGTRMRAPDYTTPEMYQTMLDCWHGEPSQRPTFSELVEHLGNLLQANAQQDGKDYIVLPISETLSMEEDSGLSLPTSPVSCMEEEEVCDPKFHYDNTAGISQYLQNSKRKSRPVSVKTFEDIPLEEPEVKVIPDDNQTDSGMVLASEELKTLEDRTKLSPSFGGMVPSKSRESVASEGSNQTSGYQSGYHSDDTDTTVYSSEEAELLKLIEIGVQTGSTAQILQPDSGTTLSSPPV
SMILES,AC50 [1] [µM],AC50 [2] [µM],AC50 [3] [µM]
CC[C@H](C)C[C@H](C)CCCCCCCCC(=O)N[C@H]1C[C@@H](O)[C@@H](NCCN)NC(=O)[C@@H]2[C@@H](O)CCN2C(=O)[C@H]([C@H](O)CCN)NC(=O)[C@H]([C@H](O)[C@@H](O)c2ccc(O)cc2)NC(=O)[C@@H]2C[C@@H](O)CN2C(=O)[C@H]([C@@H](C)O)NC1=O [CASPOFUNGIN],> 30,> 30,> 10
Cc1ccccc1C(=O)Nc1ccc(C(=O)N2CCCC(N(C)C)c3ccccc32)cc1 (stereo unspecified) [MOZAVAPTAN],> 30,> 30,> 30
CN1CCC(=C2c3ccccc3Sc3ccccc32)CC1 [PIMETHIXENE],> 30,> 30,> 30
C/C=C/C/C=C/CCC(=O)[C@H]1O[C@H]1C(N)=O [CERULENIN],> 30,> 30,> 30
CC[C@H](c1ccc(O)cc1)[C@@H](CC)c1ccc(O)cc1 [HEXESTROL],22.8,25.9,> 30
O=C1/C(=C2\Nc3ccc(S(=O)(=O)O)cc3C2=O)Nc2ccc(S(=O)(=O)O)cc21 [INDIGOTINDISULFONATE],> 30,> 30,3.05
FC(F)(F)c1ccc(CNc2ccc(Cc3c[nH]c4ncc(Cl)cc34)cn2)cn1 [PEXIDARTINIB],> 30,> 30,0.131
[H]/N=C(\N/C(=N/[H])Nc1ccc(Cl)cc1)NC(C)C [PROGUANIL],> 30,> 30,> 30
CC(C)C[C@H](NC(=O)CNC(=O)c1cc(Cl)ccc1Cl)B(O)O [IXAZOMIB],> 30,> 30,> 30
O=C(O)c1cc(/N=N/c2ccc(O)c(C(=O)O)c2)ccc1O [OLSALAZINE],> 30,> 30,12.3
C=CCN1CC[C@]23CCCC[C@H]2[C@H]1Cc1ccc(O)cc13 [LEVALLORPHAN],> 30,> 30,> 30
CC(C)(O)CNc1nc(Nc2ccnc(C(F)(F)F)c2)nc(-c2cccc(C(F)(F)F)n2)n1 [ENASIDENIB],> 30,> 30,20.5
CNC(=O)Oc1cccc2ccccc12 [CARBARIL],> 30,> 30,> 30
CC(CN1CC(=O)NC(=O)C1)N1CC(=O)NC(=O)C1 (stereo unspecified) [RAZOXANE],> 30,> 30,> 30
N[C@@H](CS)C(=O)O [CYSTEINE],> 30,> 30,> 30
CN1CCCCC1CCN1c2ccccc2Sc2ccc([S+](C)[O-])cc21 (stereo unspecified) [MESORIDAZINE],> 30,> 30,> 30
Nc1ccc(C(=O)Oc2ccccc2)c(O)c1 [PHENYL AMINOSALICYLATE],> 30,> 30,23.2
CCn1cc(C(=O)O)c(=O)c2cc3c(cc21)OCO3 [OXOLINIC ACID],> 30,> 30,> 30
CCOC(=O)C1=C[C@@H](OC(CC)CC)[C@H](NC(C)=O)[C@@H](N)C1 [OSELTAMIVIR],> 30,> 30,> 30
COc1c2ccoc2cc2oc(=O)ccc12 [BERGAPTEN],> 30,> 30,> 30
OC[C@H]1O[C@@H](c2ccc(Cl)c(Cc3ccc(O[C@H]4CCOC4)cc3)c2)[C@H](O)[C@@H](O)[C@@H]1O [EMPAGLIFLOZIN],> 30,> 30,> 30
CC(C)OC(=O)CCC/C=C\C[C@@H]1[C@@H](/C=C/C(F)(F)COc2ccccc2)[C@H](O)C[C@@H]1O [TAFLUPROST],> 30,> 30,> 10
CC[C@H]1OC(=O)[C@H](C)C(=O)[C@H](C)[C@@H](O[C@@H]2O[C@H](C)C[C@H](N(C)C)[C@H]2O)[C@](C)(OC)C[C@@H](C)C(=O)[C@H](C)[C@H]2N(CCCCn3cnc(-c4cccnc4)c3)C(=O)O[C@]12C [TELITHROMYCIN],> 30,> 30,> 30
N[C@@H](CO)C(=O)O [SERINE],> 30,> 30,> 30
CC(=O)Oc1cc(C(F)(F)F)ccc1C(=O)O [TRIFLUSAL],> 30,> 30,> 30
C[C@@H]1C[C@H]2[C@@H]3CCC4=CC(=O)C=C[C@]4(C)[C@@]3(Cl)[C@@H](O)C[C@]2(C)[C@@]1(OC(=O)c1ccco1)C(=O)CCl [MOMETASONE FUROATE],> 30,> 30,> 30
Cc1onc(-c2ccccc2)c1C(=O)N[C@@H]1C(=O)N2[C@@H]1SC(C)(C)[C@@H]2C(=O)O [OXACILLIN],> 30,> 30,> 30

# Reference: ChEMBL document CHEMBL5291721, “A preclinical secondary pharmacology resource illuminates target-adverse drug reaction associations of marketed drugs” (Nat Commun, 2023)
